{
  "source": "patent US20260007673A1",
  "about": "“ROCK2 INHIBITORS FOR THE TREATMENT OF VIRAL INFECTIONS” (GRAVITON BIOSCIENCE BV, priority 2022, published 2026)",
  "key": {"SARS-CoV-2 Delta variant": {"test_system": "SARS-CoV-2 Delta variant", "assay_type": "in vivo, mice", "details": "100 and 300 mg/kg daily oral gavage"}, "[1]": {"test_system": "SARS-CoV-2 Omicron variant", "assay_type": "in vivo, mice", "details": "100 and 300 mg/kg daily oral gavage, 7, 14, 21 days (FIG. 15B)"}},
  "data": [
    {"smiles": "Cn1c(C(=O)N2CC(F)(F)C2)cc2ccc(-c3nccc(Nc4ccc(-c5cn[nH]c5)cc4)n3)cc21", "note": "[Compound 2, (6-(4-((4-(1H-pyrazol-4-yl)phenyl)amino)pyrimidin-2-yl)-1-methyl-1H-indol-2-yl)(3,3-difluoroazetidin-1-yl)methanone]", "values": [
      {"measurement": "viral load in the lung", "setting": "SARS-CoV-2 Delta variant", "value": "effect was observed"},
      {"measurement": "viral load in the lung", "setting": "[1]", "value": "effect was observed"}
    ]}
  ]
}
